From patent US11986493B2 (University of Pittsburgh—Of the Commonwealth System of …, priority 2013, dated 2024)

Assays:
[1] = test system: subjects with pulmonary hypertension (WHO group I PAH, WHO group III PH); assay: Right heart catheterization: right heart/pulmonary artery hemodynamics, thermodilution cardiac output, PVR and SVR after inhaled NO and nebulized nitrite; assay type: in vivo, human
Method: A total of 6 subjects with a confirmed diagnosis of pulmonary hypertension and meeting all inclusion/exclusion criteria were enrolled in the study which entailed a single right heart catheterization. The study population consisted of subjects with WHO group I PAH (n=3) and subjects with WHO group III PH (n=3) which received the dose escalation paradigm:
(§1) During the study right heart/pulmonary artery hemodynamics were measured as well as noninvasive systemic blood pressure monitoring and simultaneous RV echocardiography. Subjects were tested for the changes in pulmonary vascular resistance (PVR) measured by right heart catheterization and using thermodilution cardiac output measurement at time zero, at times 15, 30 and 45 minutes after completion of each nebulization dose.
Following right heart catheterization, the patient was stabilized for 20 minutes. Baseline blood collections and hemodynamic measurements were performed, followed by treatment with 40 ppm inhaled NO gas for […] with repeat hemodynamic measurements performed.
After stopping inhaled NO gas, a single dose of sildenafil was given if patients were on background sildenafil therapy at previously prescribed doses. 45-minutes after sildenafil dose baseline hemodynamics were performed.
Subjects were monitored carefully during and after the study treatment.
The study was conducted at the 3rd FL Catheterization Laboratory at Presbyterian Hospital of the University of Pittsburgh Medical Center (UPMC). Baseline vasoreactivity was recorded after Inhaled NO at 40 ppm for […]. […] Subjects were instructed to breathe as calmly, and deeply as possible until no more mist was formed in the nebulizer chamber. Subjects were also instructed to hold their breath for approximately 10 seconds after inhalation to allow the study drug to reach deep into the lungs.

[2] = test system: subjects with pulmonary hypertension; assay: Oxygen saturation by pulse oximeter and methemoglobin by continuous percutaneous co-oximetry; assay type: in vivo, human; parameters: Syst O2sat: unit not given here
Method: Oxygen saturation measured by pulse oximeter and methemoglobin levels monitored by continuous percutaneous co-oximetry prior to dose administration and through 4 hours post-dose were monitored closely.

[3] = test system: subjects with pulmonary hypertension; assay: Systemic blood pressure (noninvasive) and heart rate monitoring during the study
Method: as §1
Subjects were monitored closely for changes in blood pressure during the study. […] Subjects were continued to be monitored closely every 10 minutes for 2 hours.

[4] = 40 ppm inhaled NO, some patients (non-responsive to inhaled NO)

nitric oxide [iNO, reference compound]
reduction in PCWP from baseline [1, 4]: did not show a meaningful reduction
reduction in RA from baseline [1, 4]: did not show a meaningful reduction
CI ([1]; Patient 1, 40 ppm inhaled NO): 2.54
CO ([1]; Patient 1, 40 ppm inhaled NO): 4.91
PA sat ([1]; Patient 1, 40 ppm inhaled NO): 68
PAD ([1]; Patient 1, 40 ppm inhaled NO): 25
PAS ([1]; Patient 1, 40 ppm inhaled NO): 73
PCWP ([1]; Patient 1, 40 ppm inhaled NO): 14
PVR ([1]; Patient 1, 40 ppm inhaled NO): 5.50
PVR/SVR ([1]; Patient 1, 40 ppm inhaled NO): 0.40
RA ([1]; Patient 1, 40 ppm inhaled NO): 12
SVR ([1]; Patient 1, 40 ppm inhaled NO): 13.78
TPR ([1]; Patient 1, 40 ppm inhaled NO): 8.35
mPAP ([1]; Patient 1, 40 ppm inhaled NO): 41.01
CI ([1]; Patient 2, 40 ppm inhaled NO): 3.47
CO ([1]; Patient 2, 40 ppm inhaled NO): 6.7
PA sat ([1]; Patient 2, 40 ppm inhaled NO): 68
PAD ([1]; Patient 2, 40 ppm inhaled NO): 13
PAS ([1]; Patient 2, 40 ppm inhaled NO): 45
PCWP ([1]; Patient 2, 40 ppm inhaled NO): 10
PVR ([1]; Patient 2, 40 ppm inhaled NO): 2.04
PVR/SVR ([1]; Patient 2, 40 ppm inhaled NO): 0.17
RA ([1]; Patient 2, 40 ppm inhaled NO): 7
SVR ([1]; Patient 2, 40 ppm inhaled NO): 11.99
TPR ([1]; Patient 2, 40 ppm inhaled NO): 3.53
mPAP ([1]; Patient 2, 40 ppm inhaled NO): 23.67
CI ([1]; Patient 3, 40 ppm inhaled NO): 3.14
CO ([1]; Patient 3, 40 ppm inhaled NO): 6.53
PAD ([1]; Patient 3, 40 ppm inhaled NO): 20
PAS ([1]; Patient 3, 40 ppm inhaled NO): 69
PCWP ([1]; Patient 3, 40 ppm inhaled NO): 14
PVR ([1]; Patient 3, 40 ppm inhaled NO): 3.42
PVR/SVR ([1]; Patient 3, 40 ppm inhaled NO): 0.35
RA ([1]; Patient 3, 40 ppm inhaled NO): 11
SVR ([1]; Patient 3, 40 ppm inhaled NO): 9.65
TPR ([1]; Patient 3, 40 ppm inhaled NO): 5.56
mPAP ([1]; Patient 3, 40 ppm inhaled NO): 36.34
CI ([1]; Patient 4, 40 ppm inhaled NO): 2.98
CO ([1]; Patient 4, 40 ppm inhaled NO): 5.21
PAD ([1]; Patient 4, 40 ppm inhaled NO): 21
PAS ([1]; Patient 4, 40 ppm inhaled NO): 63
PCWP ([1]; Patient 4, 40 ppm inhaled NO): 7
PVR ([1]; Patient 4, 40 ppm inhaled NO): 5.38
PVR/SVR ([1]; Patient 4, 40 ppm inhaled NO): 0.29
RA ([1]; Patient 4, 40 ppm inhaled NO): 3
SVR ([1]; Patient 4, 40 ppm inhaled NO): 18.30
TPR ([1]; Patient 4, 40 ppm inhaled NO): 6.72
mPAP ([1]; Patient 4, 40 ppm inhaled NO): 35.00
CI ([1]; Patient 5, 40 ppm inhaled NO): 2.85
CO ([1]; Patient 5, 40 ppm inhaled NO): 5.05
PAD ([1]; Patient 5, 40 ppm inhaled NO): 17
PAS ([1]; Patient 5, 40 ppm inhaled NO): 64
PCWP ([1]; Patient 5, 40 ppm inhaled NO): 14
PVR ([1]; Patient 5, 40 ppm inhaled NO): 3.70
PVR/SVR ([1]; Patient 5, 40 ppm inhaled NO): 0.30
RA ([1]; Patient 5, 40 ppm inhaled NO): 5
RVD ([1]; Patient 5, 40 ppm inhaled NO): 5
RVS ([1]; Patient 5, 40 ppm inhaled NO): 66
SVR ([1]; Patient 5, 40 ppm inhaled NO): 12.15
TPR ([1]; Patient 5, 40 ppm inhaled NO): 6.47
mPAP ([1]; Patient 5, 40 ppm inhaled NO): 32.67
CI ([1]; Patient 6, iNO): 3.1658
CO ([1]; Patient 6, iNO): 6.3
PAD ([1]; Patient 6, iNO): 27
PAS ([1]; Patient 6, iNO): 58
PCWP ([1]; Patient 6, iNO): 13
PVR ([1]; Patient 6, iNO): 4.3924
PVR/SVR ([1]; Patient 6, iNO): 0.3132
RA ([1]; Patient 6, iNO): 12
RVD ([1]; Patient 6, iNO): 12
RVS ([1]; Patient 6, iNO): 58
SVR ([1]; Patient 6, iNO): 14.023
TPR ([1]; Patient 6, iNO): 6.4559
mPAP ([1]; Patient 6, iNO): 40.672
PCWP compared to baseline ([1]; after inhalation of NO, in some instances): increased
Syst O2sat ([2]; Patient 1, 40 ppm inhaled NO): 100
Syst O2sat ([2]; Patient 2, 40 ppm inhaled NO): 100
Syst O2sat ([2]; Patient 3, 40 ppm inhaled NO): 99
Syst O2sat ([2]; Patient 4, 40 ppm inhaled NO): 100
Syst O2sat ([2]; Patient 5, 40 ppm inhaled NO): 100
Syst O2sat ([2]; Patient 6, iNO): 100
HR ([3]; Patient 1, 40 ppm inhaled NO): 84
Systemic DBP ([3]; Patient 1, 40 ppm inhaled NO): 66
Systemic SBP ([3]; Patient 1, 40 ppm inhaled NO): 107
Systemic mBP ([3]; Patient 1, 40 ppm inhaled NO): 79.68
HR ([3]; Patient 2, 40 ppm inhaled NO): 71
Systemic DBP ([3]; Patient 2, 40 ppm inhaled NO): 69
Systemic SBP ([3]; Patient 2, 40 ppm inhaled NO): 124
Systemic mBP ([3]; Patient 2, 40 ppm inhaled NO): 87.34
HR ([3]; Patient 3, 40 ppm inhaled NO): 75
Systemic DBP ([3]; Patient 3, 40 ppm inhaled NO): 57
Systemic SBP ([3]; Patient 3, 40 ppm inhaled NO): 108
Systemic mBP ([3]; Patient 3, 40 ppm inhaled NO): 74.01
HR ([3]; Patient 4, 40 ppm inhaled NO): 66
Systemic DBP ([3]; Patient 4, 40 ppm inhaled NO): 76
Systemic SBP ([3]; Patient 4, 40 ppm inhaled NO): 143
Systemic mBP ([3]; Patient 4, 40 ppm inhaled NO): 98.35
HR ([3]; Patient 5, 40 ppm inhaled NO): 56
Systemic DBP ([3]; Patient 5, 40 ppm inhaled NO): 51
Systemic SBP ([3]; Patient 5, 40 ppm inhaled NO): 97
Systemic mBP ([3]; Patient 5, 40 ppm inhaled NO): 65.34
HR ([3]; Patient 6, iNO): 100
Systemic DBP ([3]; Patient 6, iNO): 77
Systemic SBP ([3]; Patient 6, iNO): 147
Systemic mBP ([3]; Patient 6, iNO): 100.346
